What was measured:
[1] = tested on: KARPAS-299 (T-Cell Non-Hodgkin's Lymphoma); assay: Bliss excess, mean over the matrix (fraction); higher = more synergy
How it was run: (§1)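 Cell lines grown in DMEM/F12 or RPMI with 10% FBS were plated in 1536-well plates and held 24 hours at 37°C, 5% CO2 before 72 hours of exposure to two-drug dose matrices, with DMSO typically at 0.2%. CellTiter-Glo 2.0 luminescence gave viability, which was converted to inhibition. Vehicle wells were set to 0 and blank wells to 1. Combination Emax is the second-highest inhibition in the matrix, and Bliss excess is the observed combination effect minus the expected EA + EB − EA·EB, where EA and EB are the single-agent effects.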

TK10 (Kidney Carcinoma) = assay: as above
How it was run: as §1

[2] = tested on: Ca9-22 (Head and Neck Carcinoma); assay: as above
How it was run: as §1

[3] = tested on: KYSE-450 (Esophageal Squamous Cell Carcinoma); assay: as above
How it was run: as §1

D-263MG (Glioblastoma) [4] = assay: as above
How it was run: as §1

EW-24 (Ewing's Sarcoma) = assay: combination Emax (second highest fraction inhibited in the dose matrix, 72 h); higher = more inhibition; extreme values may be limits of the assay
How it was run: as §1

[5] = tested on: KARPAS-299 (T-Cell Non-Hodgkin's Lymphoma); assay: as above
How it was run: as §1

[6] = tested on: NCI-H358 (Lung Adenocarcinoma); assay: as above
How it was run: as §1

[7] = tested on: NCI-H727 (Other Solid Carcinomas); assay: as above
How it was run: as §1

[8] = tested on: Hs-766T (Pancreatic Carcinoma); assay: as above
How it was run: as §1

[9] = tested on: Ca9-22 (Head and Neck Carcinoma); assay: as above
How it was run: as §1

[10] = tested on: RF-48 (B-Cell Non-Hodgkin's Lymphoma); assay: as above
How it was run: as §1

TGW (Neuroblastoma) = assay: as above
How it was run: as §1

[11] = tested on: LU-65 (Non-Small Cell Lung Carcinoma); assay: as above
How it was run: as §1

[12] = tested on: KYSE-450 (Esophageal Squamous Cell Carcinoma); assay: as above
How it was run: as §1

YH-13 (Glioblastoma) = assay: as above
How it was run: as §1

[13] = tested on: EoL-1-cell (Acute Myeloid Leukemia); assay: as above
How it was run: as §1

[14] = tested on: PANC-04-03 (Pancreatic Carcinoma); assay: as above
How it was run: as §1

[15] = tested on: AMO-1 (Plasma Cell Myeloma); assay: as above
How it was run: as §1

D-263MG (Glioblastoma) [16] = assay: as above
How it was run: as §1
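Wherever Bliss excess, mean over the matrix is given: after 72 h of two-drug dosing.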

| Structure (SMILES) | Bliss excess [1] | Bliss excess (TK10 (Kidney Carcinoma)) | Bliss excess [2] | Bliss excess [3] | Bliss excess (D-263MG (Glioblastoma) [4]) | combination Emax (EW-24 (Ewing's Sarcoma)) | combination Emax [5] | combination Emax [6] | combination Emax [7] | combination Emax [8] | combination Emax [9] | combination Emax [10] | combination Emax (TGW (Neuroblastoma)) | combination Emax [11] | combination Emax [12] | combination Emax (YH-13 (Glioblastoma)) | combination Emax [13] | combination Emax [14] | combination Emax [15] | combination Emax (D-263MG (Glioblastoma) [16]) |
| --- | --- | --- | --- | --- | --- | --- | --- | --- | --- | --- | --- | --- | --- | --- | --- | --- | --- | --- | --- | --- |
| CN(CCO)CC[C@H](CSc1ccccc1)Nc1ccc(S(=O)(=O)NC(=O)c2ccc(N3CCC([C@@H](O)c4ccccc4-c4ccc(Cl)cc4)CC3)cc2)cc1S(=O)(=O)C(F)(F)F [AZD4320] + C1CN(CCC1(C(=O)N[C@@H](CCO)C2=CC=C(C=C2)Cl)N)C3=NC=NC4=C3C=CN4 [Capivasertib] (first compound max 1 µM, 7x7, partner max 3 µM) | -0.0024 | -0.0676 | -0.0055 | -0.0449 | -0.0512 | 0.869 | 0.0749 | 0.273 | 0.484 | 0.204 | 0.301 | 0.817 | 0.924 | 0.612 | 0.199 | 0.266 | 1 | 0.178 | 0.317 | 0.0907 |
| CN(CCO)CC[C@H](CSc1ccccc1)Nc1ccc(S(=O)(=O)NC(=O)c2ccc(N3CCC([C@@H](O)c4ccccc4-c4ccc(Cl)cc4)CC3)cc2)cc1S(=O)(=O)C(F)(F)F [AZD4320] + C=CCn1c(=O)c2cnc(Nc3ccc(N4CCN(C)CC4)cc3)nc2n1-c1cccc(C(C)(C)O)n1 [AZD1775] (first compound max 1 µM, partner max 1 µM) | 0.0477 | 0.0515 | 0.0335 | -0.0535 | -0.0277 | 0.913 | 0.938 | 0.498 | 0.515 | 0.398 | 0.851 | 0.885 | 1 | 0.763 | 0.64 | 0.449 | 1 | 0.486 | 0.732 | 0.381 |
| CN(CCO)CC[C@H](CSc1ccccc1)Nc1ccc(S(=O)(=O)NC(=O)c2ccc(N3CCC([C@@H](O)c4ccccc4-c4ccc(Cl)cc4)CC3)cc2)cc1S(=O)(=O)C(F)(F)F [AZD4320] + CC(=O)O[C@H]1C(=O)[C@@]2(C)[C@H]([C@H](OC(=O)c3ccccc3)[C@]3(O)C[C@H](OC(=O)[C@H](O)[C@@H](NC(=O)c4ccccc4)c4ccccc4)C(C)=C1C3(C)C)[C@]1(OC(C)=O)CO[C@@H]1C[C@@H]2O [Paclitaxel] (first compound max 1 µM, 7x7, partner max 3 µM) | -0.079 | 0.0195 | 0.037 | 0.0129 | 0.102 | 0.968 | 0.837 | 0.916 | 0.82 | 0.436 | 0.997 | 0.989 | 1 | 0.951 | 0.875 | 1 | 1 | 0.585 | 1 | 0.95 |
| CN(CCO)CC[C@H](CSc1ccccc1)Nc1ccc(S(=O)(=O)NC(=O)c2ccc(N3CCC([C@@H](O)c4ccccc4-c4ccc(Cl)cc4)CC3)cc2)cc1S(=O)(=O)C(F)(F)F [AZD4320] + CCN(CCO)CCCOc1ccc2c(Nc3cc(CC(=O)Nc4cccc(F)c4)[nH]n3)ncnc2c1 [AZD2811] (first compound max 1 µM, 7x7, partner max 1 µM) | 0.0104 | -0.0199 | 0.0591 | -0.0273 | 0.0665 | 0.865 | 0.191 | 0.269 | 0.512 | 0.171 | 0.572 | 0.881 | 0.928 | 0.432 | 0.153 | 0.704 | 1 | 0.138 | 0.291 | 0.653 |
| CN(CCO)CC[C@H](CSc1ccccc1)Nc1ccc(S(=O)(=O)NC(=O)c2ccc(N3CCC([C@@H](O)c4ccccc4-c4ccc(Cl)cc4)CC3)cc2)cc1S(=O)(=O)C(F)(F)F [AZD4320] + C[C@@H]1COCCN1C2=NC(=NC(=C2)C3(CC3)[S@](=N)(=O)C)C4=C5C=CNC5=NC=C4 [AZD6738] (first compound max 1 µM, 7x7, partner max 10 µM) | -0.0153 | -0.0797 | 0.0001 | -0.0496 | -0.0424 | 0.954 | 0.955 | 0.705 | 0.695 | 0.6 | 0.969 | 0.917 | 0.949 | 0.781 | 0.547 | 0.568 | 1 | 0.461 | 0.826 | 0.758 |
| CN(CCO)CC[C@H](CSc1ccccc1)Nc1ccc(S(=O)(=O)NC(=O)c2ccc(N3CCC([C@@H](O)c4ccccc4-c4ccc(Cl)cc4)CC3)cc2)cc1S(=O)(=O)C(F)(F)F [AZD4320] + C[C@@H](Nc1cc(F)cc(F)c1)c1cc(C(=O)N(C)C)cc2c(=O)cc(N3CCOCC3)oc12 [AZD8186] (first compound max 1 µM, 7x7, partner max 3 µM) | 0.044 | -0.032 | -0.0194 | -0.07 | 0.0288 | 0.921 | 0.247 | 0.394 | 0.378 | 0.469 | 0.648 | 0.959 | 0.968 | 0.483 | 0.33 | 0.694 | 1 | 0.257 | 0.244 | 0.38 |
| CN(CCO)CC[C@H](CSc1ccccc1)Nc1ccc(S(=O)(=O)NC(=O)c2ccc(N3CCC([C@@H](O)c4ccccc4-c4ccc(Cl)cc4)CC3)cc2)cc1S(=O)(=O)C(F)(F)F [AZD4320] + Cc1cc2ncnn2cc1Nc1ncc2c(n1)n(C1CCOCC1)c(=O)n2C [AZD7648] (first compound max 1 µM, 7x7, partner max 10 µM) | -0.0343 | -0.014 | -0.0039 | -0.0383 | -0.0192 | 0.851 | 0.221 | 0.186 | 0.198 | 0.405 | 0.163 | 0.809 | 0.979 | 0.494 | 0.111 | 0.227 | 1 | 0.229 | 0.216 | 0.108 |
| CN(CCO)CC[C@H](CSc1ccccc1)Nc1ccc(S(=O)(=O)NC(=O)c2ccc(N3CCC([C@@H](O)c4ccccc4-c4ccc(Cl)cc4)CC3)cc2)cc1S(=O)(=O)C(F)(F)F [AZD4320] + Cn1cnc2c(F)c(Nc3ccc(Br)cc3Cl)c(C(=O)NOCCO)cc21 [Selumetinib] (first compound max 1 µM, 7x7, partner max 3 µM) | 0.0476 | -0.0867 | 0.0415 | 0.0177 | -0.0094 | 0.892 | 0.307 | 0.564 | 0.973 | 0.57 | 0.593 | 0.951 | 0.97 | 0.753 | 0.386 | 0.511 | 1 | 0.406 | 0.418 | 0.237 |
| CN(CCO)CC[C@H](CSc1ccccc1)Nc1ccc(S(=O)(=O)NC(=O)c2ccc(N3CCC([C@@H](O)c4ccccc4-c4ccc(Cl)cc4)CC3)cc2)cc1S(=O)(=O)C(F)(F)F [AZD4320] + Nc1ccn([C@@H]2O[C@H](CO)[C@@H](O)C2(F)F)c(=O)n1 [Gemcitabine] (first compound max 1 µM, 7x7, partner max 0.3 µM) | 0.0251 | 0.0032 | 0.0876 | -0.0497 | -0.0625 | 0.98 | 0.812 | 0.396 | 0.634 | 0.311 | 0.927 | 0.955 | 0.934 | 0.492 | 0.202 | 0.852 | 1 | 0.461 | 0.953 | 0.363 |
| Cc1cc2ncnn2cc1Nc1ncc2c(n1)n(C1CCOCC1)c(=O)n2C [AZD7648] + C=CCn1c(=O)c2cnc(Nc3ccc(N4CCN(C)CC4)cc3)nc2n1-c1cccc(C(C)(C)O)n1 [AZD1775] (first compound max 10 µM, partner max 1 µM) | 0.0072 | 0.0668 | 0.022 | -0.03 | 0.0037 | 0.458 | 0.927 | 0.524 | 0.351 | 0.555 | 0.734 | 0.532 | 0.732 | 0.692 | 0.638 | 0.449 | 0.978 | 0.555 | 0.755 | 0.392 |
| Cc1cc2ncnn2cc1Nc1ncc2c(n1)n(C1CCOCC1)c(=O)n2C [AZD7648] + CCN(CCO)CCCOc1ccc2c(Nc3cc(CC(=O)Nc4cccc(F)c4)[nH]n3)ncnc2c1 [AZD2811] (first compound max 10 µM, 7x7, partner max 1 µM) | 0.0493 | 0.0024 | 0.0541 | 0.0246 | 0.0415 | 0.45 | 0.326 | 0.326 | 0.287 | 0.422 | 0.3 | 0.303 | 0.351 | 0.37 | 0.343 | 0.482 | 0.984 | 0.284 | 0.469 | 0.473 |
| Cc1cc2ncnn2cc1Nc1ncc2c(n1)n(C1CCOCC1)c(=O)n2C [AZD7648] + CN(C)CCCOc1ccc(-c2ccc3ncc4c(c3c2)n(C2CCOCC2)c(=O)n4C)cn1 [AZD0156] (first compound max 10 µM, 7x7, partner max 1 µM) | 0.0477 | 0.013 | 0.0625 | 0.0038 | 0.005 | 0.364 | 0.237 | 0.349 | 0.294 | 0.525 | 0.226 | 0.349 | 0.351 | 0.334 | 0.252 | 0.345 | 0.238 | 0.347 | 0.431 | 0.25 |

From the supplement of paper PMC11061612
